Data taken from patent US9096539B2, “Substituted 4,5-dihydro-2H-benzo[e]indazole-9-carboxylates for the treatment of diabetes and related disorders” (Council of Scientific & Industrial Research, priority 2012, dated 2015).
Like-named read-outs stand apart in the source and are kept apart here. Values belong to the compound of their own block, whether it stands above or below them.

Key:
[1] = test system: low dosed STZ induced diabetic rats; test: Antihyperglycaemic activity in low dosed streptozotocin induced diabetic rats (STZ); type: in vivo, rat; settings: low dosed STZ diabetic rats, compounds 100 mg/kg, Januvia 50 mg/kg
Description: (§1) The test compounds and standard antidiabetic drug Januvia were prepared in 1.0% freshly prepared Gum acacia.
Assessment of Test Compounds for Antihyperglycaemic Activity in Low Dosed Streptozotocin Induced Diabetic Rats—
Induction of Diabetes in Rats:
Overnight starved male albino rats of Sprague Dawley strain were used and Diabetes was induced in the animals by single intraperitoneal injection of Streptozotocin at 60 mg/kg body weight dose prepared in 0.1M citrate buffer (pH 4.5). Fasting blood glucose level was measured by using a Glucometer (ACCU-CHEK II; Roche Diagnostics, USA) after 48 hours and animals showing blood glucose level above 300 mg/di were considered as diabetic.
The diabetic animals were divided into four groups (Group 1 to 4) each consisting 6 rats. Group 1 received 0.4 ml vehicle (1% gum acacia). Group 2 received the test compound 5 at an oral dose of 100 mg/kg/body weight. Group 3 was given compound 6 at an oral dose of 100 mg/kg/body weight. The standard antidiabetic drug Januvia was given to the animals of Group 4 at an oral dose of 50 mg/kg body weight. […] Food but not water was withheld from the cages during the course of experimentation. Percent hyperglycemic activity was determined by comparing the AUC (area under curve) of experimental groups with that of the vehicle treated control group.
(§2) Quantitative glucose tolerance of each animal was calculated by the area under the curve (AUC) method using Prism Software. The area under the curve of the control group and the experimental group was compared to determine the percent antihyperglycaemic activity. Statistical comparisons were performed by one-way analysis of variance (ANOVA), followed by Dunnett's multiple range test (DMRT). The results were considered statistically significant if the ‘p’ values were 0.05 or less. Results were expressed as mean±SEM.

[2] = test system: sucrose challenged STZ induced diabetic rats; test: Antihyperglycaemic activity in sucrose challenged streptozotocin (STZ)-induced diabetic rats (STZ-S); type: in vivo, rat; settings: compounds 100 mg/kg, Januvia 50 mg/kg
Description: The test compounds and standard antidiabetic drug Januvia were prepared in 1.0% freshly prepared Gum acacia. Assessment of Test Compounds for Antihyperglycaemic Activity in Sucrose Challenged Streptozotocin STZ-Induced Diabetic Rats— Induction of Diabetes in Rats: Overnight starved male albino rats of Sprague Dawley strain were used and Diabetes was induced in the animals by single intraperitoneal injection of Streptozotocin at 60 mg/kg body weight dose prepared in 0.1M citrate buffer (pH 4.5). Fasting blood glucose level was measured by using a Glucometer (ACCU-CHEK II; […] Grouping and Treatment: […] All the diabetic animals were again divided into groups with five animals in each group. Animals of one group were regarded as the control group (orally administered 1% gum acacia) and the others were treated as the experimental groups. […] Animals of the control group were given an equal amount of 1.0% gum acacia. The standard antidiabetic drug Januvia was given to the animals at an oral dose of 50 mg/kg body weight. […] Food but not water was withheld from the cages during the course of experimentation. Percent hyperglycemic activity was determined by comparing the AUC (area under curve) of experimental groups with that of the vehicle treated control group. Quantitative glucose tolerance of each animal was calculated by the area under the curve (AUC) method using Prism Software. The area under the curve of the control group and the experimental group was compared to determine the percent antihyperglycaemic activity. Statistical comparisons were performed by one-way analysis of variance (ANOVA), followed by Dunnett's multiple range test (DMRT). […] Results were expressed as mean±SEM.

[3] = test system: sucrose loaded normoglycaemic rats; test: Antihyperglycaemic activity on sucrose loaded normoglycaemic rats (SLM); type: in vivo, rat; settings: sucrose loaded normoglycaemic rats, compounds 100 mg/kg, Januvia 50 mg/kg; for Blood Glucose Profile 0 min: 0 min (fasting baseline); for Blood Glucose Profile 120 min: 120 min post sucrose
Description: as §1
Assessment of Test Compounds for Antihyperglycaemic Activity on Sucrose Loaded Normoglycaemic Rats—
In order to search towards the antidiabetic activity, synthetic compounds were preliminary evaluated for their effect on glucose tolerance in normal rats. It is an indirect effect of measuring antihyperglycaemic activity. Male albino rats of Wistar strain of body weight 160±20 g were selected for this study. The blood glucose of each animal was checked by glucometer using glucostrips (Accu-check) after 16 hours starvation. Animals showing blood glucose between 60 to 80 mg/dl (3.33 to 4.44 mM) were divided into groups of five to six animals in each. Rats of experimental group were administered suspension of the desired test compound orally (made in 1.0% gum acacia). The standard dose decided for Synthetic compounds is 100 mg/kg body weight. Animals of control group were given an equal amount of 1.0% gum acacia. A sucrose load (10.0 g/kg) was given to each animal orally exactly after 30 min post administration of the test sample/vehicle. Blood glucose profile of each rat was again determined at 30, 60, 90 and 120 min post administration of sucrose by glucometer. Food but not water was withheld from the cages during the course of experimentation. Quantitative glucose tolerance of each animal was calculated by area under curve (AUC) method using Prism Software. Comparing the AUC of experimental and control groups determined the percentage antihyperglycaemic activity. Statistical comparison was made by Dunnett's test.
as §2

[4] = target: T1, human recombinant PTP1B enzyme (Homo sapiens, UniProt P18031); test: Protein tyrosine phosphatase-1B assay (colorimetric kit BML-AK 822); type: biochemical; settings: read-out: % Inhibition (PTP-1B)
T1 construct: purchased Enzo Life Sciences, USA BML-AK 822
T1 sequence (P18031 1-322 limits assumed): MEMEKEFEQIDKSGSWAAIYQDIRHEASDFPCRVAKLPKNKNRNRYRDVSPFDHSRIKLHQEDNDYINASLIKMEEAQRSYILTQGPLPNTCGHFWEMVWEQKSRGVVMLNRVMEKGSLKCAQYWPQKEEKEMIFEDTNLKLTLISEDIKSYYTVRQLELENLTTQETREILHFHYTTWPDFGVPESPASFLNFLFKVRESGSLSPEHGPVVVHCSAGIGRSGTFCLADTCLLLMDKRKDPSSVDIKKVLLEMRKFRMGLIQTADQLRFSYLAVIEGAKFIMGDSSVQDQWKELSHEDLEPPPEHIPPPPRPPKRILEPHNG
Description: Assay was done according to the Kit manufacturers protocol, in brief the reaction was carried out in 96 well flat bottomed microtiter plate by the addition of assay buffer, solution of test compounds and diluted PTP1B enzyme. Enzyme reaction was initiated by addition of 50 μl of warmed 2× substrate then incubated the plate at 30° C. for 30 min. After incubation for 30 min. Reaction was terminated by addition of 25 μl of biomol red reagent and mixed thoroughly by repeated pipetting. […] Volumes and dilution of other component were accordingly as instructed in the manual provided in the kit. PTP1B phosphatase acting on the phosphopeptide substrate and release phosphate. The detection of free phosphate released is based on classic Malachite green assay. After adding biomol red to reaction wells after 30 minutes of incubation as described earlier the plate was incubated for another 20 min to develop the colour. Absorbance was recorded at 620 nm. on a microplate reader.

[5] = 0 min pre treatment (fasting baseline)
[6] = Table 5, evaluated at 10 μM concentration

inhibition at 10 µM [4, 6]: 8.43%
melting point: 172 to 174 °C
SMILES: COC(=O)c1c(SC)cc(-c2ccc(OC)cc2)c2c1-c1cn(-c3ccccc3)nc1CC2 [compound 3, methyl 6-(4-methoxyphenyl)-8-(methylthio)-2-phenyl-4,5-dihydro-2H-benzo[e]indazole-9-carboxylate]

melting point: 235 to 237 °C
SMILES: COC(=O)c1c(SC)cc(-c2ccc3ccccc3c2)c2c1-c1cn(-c3ccccc3)nc1C2 [compound 13, Methyl 5-(methylthio)-7-(naphthalen-2-yl)-2-phenyl-2,8-dihydroindeno[2,1-c]pyrazole-4-carboxylate]

The next lines start with the compound.

SMILES: N[C@@H](CC(=O)N1CCn2c(nnc2C(F)(F)F)C1)Cc1cc(F)c(F)cc1F [Januvia, reference compound]
Blood Glucose Profile 0 min (Pre treatment) [1, 5]: 341.4 ± 3.53 mg/dL
Blood Glucose Profile 30 min (Post treatment) ([1]; 30 min): 445.8 ± 13.0 mg/dL
Blood Glucose Profile 60 min (Post treatment) ([1]; 60 min): 497.4 ± 11.2 mg/dL
Blood Glucose Profile 90 min (Post treatment) ([1]; 90 min): 473.4 ± 11.2 mg/dL
Blood Glucose Profile 120 min (Post treatment) ([1]; 120 min): 392.0 ± 11.8 mg/dL
Blood Glucose Profile 180 min (Post treatment) ([1]; 180 min): 348.2 ± 16.7 mg/dL
Blood Glucose Profile 240 min (Post treatment) ([1]; 240 min): 300.4 ± 14.7 mg/dL
Blood Glucose Profile 300 min (Post treatment) ([1]; 300 min): 255.0 ± 16.9 mg/dL
Blood Glucose Profile 1440 min (Post treatment) ([1]; 1440 min): 484.4 ± 10.7 mg/dL
% Antihyperglycaemic activity STZ 0-5 h AUC ([1]; 0-5 h AUC, oral): 28.2%
% Antihyperglycaemic activity STZ 0-24 h AUC ([1]; 0-24 h AUC, oral): 27.4%
% Antihyperglycaemic activity STZ-S 0-5 h AUC ([2]; 0-5 h AUC, oral): 21.8%
% Antihyperglycaemic activity STZ-S 0-24 h AUC ([2]; 0-24 h AUC, oral): 23.8%
Blood Glucose Profile 0 min (Pre treatment) [2, 5]: 222.3 ± 16.2 mg/dL
Blood Glucose Profile 30 min (Post treatment) ([2]; 30 min): 455.0 ± 14.2 mg/dL
Blood Glucose Profile 60 min (Post treatment) ([2]; 60 min): 519.8 ± 16.0 mg/dL
Blood Glucose Profile 90 min (Post treatment) ([2]; 90 min): 469.3 ± 9.40 mg/dL
Blood Glucose Profile 120 min (Post treatment) ([2]; 120 min): 439.3 ± 14.2 mg/dL
Blood Glucose Profile 180 min (Post treatment) ([2]; 180 min): 377.6 ± 10.1 mg/dL
Blood Glucose Profile 240 min (Post treatment) ([2]; 240 min): 359.5 ± 10.1 mg/dL
Blood Glucose Profile 300 min (Post treatment) ([2]; 300 min): 337.6 ± 8.18 mg/dL
Blood Glucose Profile 1440 min (Post treatment) ([2]; 1440 min): 394.6 ± 8.34 mg/dL
Blood Glucose Profile 0 min ([3]; mean ± S.E.): 66.3 ± 3.12 mg/dL
Blood Glucose Profile 0 min ([3]; mean ± S.E., listed as januvia): 66.2 ± 0.73 mg/dL
Blood Glucose Profile 30 min ([3]; 30 min post sucrose, mean ± S.E.): 114.0 ± 8.21 mg/dL
Blood Glucose Profile 60 min ([3]; 60 min post sucrose, mean ± S.E.): 104.8 ± 5.70 mg/dL
Blood Glucose Profile 90 min ([3]; 90 min post sucrose, mean ± S.E.): 112.0 ± 7.30 mg/dL
Blood Glucose Profile 120 min ([3]; mean ± S.E.): 115.0 ± 7.67 mg/dL
Blood Glucose Profile 120 min ([3]; mean ± S.E., listed as januvia): 115.0 ± 7.67 mg/dL
% Antihyperglycaemic activity SLM ([3]; AUC vs control, oral): 35.0%

SMILES: Cc1ccc(C(=O)Nc2ccc(S(=O)(=O)O)c3cc(S(=O)(=O)O)cc(S(=O)(=O)O)c23)cc1NC(=O)c1cccc(NC(=O)Nc2cccc(C(=O)Nc3cc(C(=O)Nc4ccc(S(=O)(=O)O)c5cc(S(=O)(=O)O)cc(S(=O)(=O)O)c45)ccc3C)c2)c1 [Standard Suramin, suramin, reference compound]
inhibition at 10 µM [4, 6]: 60.2%

SMILES: COC(=O)c1c(SC)cc(-c2ccc(Br)cc2)c2c1-c1cn(-c3ccccc3)nc1CC2 [compound 1, methyl 6-(4-bromophenyl)-8-(methylthio)-2-phenyl-4,5-dihydro-2H-benzo[e]indazole-9-carboxylate]
inhibition at 10 µM [4]: 9.2%
melting point: 164 to 166 °C

SMILES: COC(=O)c1c(SC)cc(-c2ccc(Cl)cc2)c2c1-c1cn(-c3ccccc3)nc1CC2 [compound 2, methyl 6-(4-chlorophenyl)-8-(methylthio)-2-phenyl-4,5-dihydro-2H-benzo[e]indazole-9-carboxylate]
inhibition at 10 µM [4, 6]: 8%
melting point: 159 to 162 °C
